Measurements published in patent publication US20060009465A1, “Treatment of sleep disorders using sleep target modulators” (priority 2002, published 2006).
“Also recorded” adds a separate entry of the source.

Test system: Male Wistar rats
Assay: SCORE-2000 sleep-wake assay (EEG/EMG, locomotor activity, body temperature)
[1] = Example 2, 3 mg/kg and 10 mg/kg IP at CT-5
[2] = Example 2, 10 mg/kg IP at CT-18
[3] = Example 3, male Wistar rats, 30 mg/kg

Structure (SMILES): Cl.O=C(O)C1CN(CCCn2nc3ccccn3c2=O)CCN1c1cccc(Cl)c1 (centres unmarked) [HY-2724]
- increasing sleep and sleep consolidation (Example 4, male Wistar rats, 30 mg/kg): ineffective

Structure (SMILES): Clc1cccc(N2CCNCC2)c1 [m-CPP, meta-chlorophenylpiperazine]
- interference with sleep, time post-treatment [1]: 2 to 3 h
- rebound hypersomnolence [1]: followed by a rebound hypersomnolence
- reduction in nonREM sleep time, lasting post-treatment [1]: 2 to 3 h

Structure (SMILES): O=c1n(CCCN2CCN(c3cccc(Cl)c3)CC2)nc2ccccn12 [Trazodone]
- REM Sleep Inhibition [2]: without evidence
- adverse thermoregulatory events post-treatment [2]: no evidence
- disproportional motor inhibition / locomotor activity changes [2]: without evidence; also recorded: no evidence
- nonREM sleep time [2]: increased nonREM sleep time; also recorded: markedly and significantly increased
- rebound insomnia [2]: without evidence; also recorded: no evidence
- Body Temp (CV) Adverse Event [3]: Yes
- Disproportional Motor Inhibition [3]: None
- Initial Sleep Interference [3]: initially interferes with sleep; also recorded: significant initial sleep interference
- REM Sleep Inhibition [3]: inhibits REM sleep; also recorded: significant REM sleep inhibition
- rebound insomnia [3]: None
